Test results taken from PMC3618660 (Journal of medicinal chemistry, 2013).

Tests used:
[1] = system: C57BL/6 mice; assay: mouse warm water tail withdrawal; assay type: in vivo
[2] = target: delta opioid receptor (DOR) (Rattus norvegicus, UniProt P33533); assay: antagonism of DPDPE-stimulated GTPγS binding at DOR; assay type: biochemical
[3] = target: mu opioid receptor (MOR) (Rattus norvegicus, UniProt P33535); assay: [3H]diprenorphine competitive displacement binding, C6-MOR membranes
Sequence of mu opioid receptor (MOR) (P33535 whole entry): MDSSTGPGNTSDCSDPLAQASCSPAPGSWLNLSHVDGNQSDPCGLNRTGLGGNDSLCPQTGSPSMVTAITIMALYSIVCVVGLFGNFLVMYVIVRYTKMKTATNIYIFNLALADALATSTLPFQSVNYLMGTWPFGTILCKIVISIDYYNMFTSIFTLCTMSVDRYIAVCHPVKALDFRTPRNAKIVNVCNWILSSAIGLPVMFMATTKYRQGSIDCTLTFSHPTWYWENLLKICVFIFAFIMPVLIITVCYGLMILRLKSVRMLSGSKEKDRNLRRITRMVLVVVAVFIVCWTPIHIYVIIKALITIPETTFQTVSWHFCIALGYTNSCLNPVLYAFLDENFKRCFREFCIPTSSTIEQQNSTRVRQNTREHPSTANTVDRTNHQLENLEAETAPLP

Sequence of delta opioid receptor (DOR) (P33533 whole entry): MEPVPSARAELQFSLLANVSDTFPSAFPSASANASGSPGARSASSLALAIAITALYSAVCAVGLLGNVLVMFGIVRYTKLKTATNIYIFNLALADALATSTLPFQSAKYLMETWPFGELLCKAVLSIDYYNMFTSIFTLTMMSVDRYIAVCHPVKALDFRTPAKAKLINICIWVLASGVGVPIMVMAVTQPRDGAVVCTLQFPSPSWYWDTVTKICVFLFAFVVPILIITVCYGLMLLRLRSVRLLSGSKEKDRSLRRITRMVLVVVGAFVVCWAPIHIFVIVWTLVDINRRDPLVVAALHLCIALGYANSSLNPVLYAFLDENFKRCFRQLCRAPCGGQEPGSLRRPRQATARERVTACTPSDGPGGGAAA

With Cc1cc(O)cc(C)c1C[C@H](N)C(=O)N[C@@H]1CCNc2ccc(Cc3ccccc3)cc21 [1 (4R)] the ED50 ([1]; Mus musculus, ip, read-out: ED50, tail withdrawal latency) was about 6 µmol/kg, the “antinociceptive potency compared with morphine” value ([1]; mouse WWTW after intraperitoneal administration) was “approximately equipotent to morphine” and the “time maximal antinociception is maintained” value ([1]; mouse WWTW time course, 10 mg/kg ip) was “approximately 60 minutes”. The “effect of naltrexone pretreatment on dose/response curve” value ([1]; naltrexone 1mg/kg ip, 30 min pretreatment, mouse WWTW) was “rightward shift”.

In the case of Cc1cc(O)cc(C)c1C[C@H](N)C(=O)NC1CCNc2ccc(Cc3ccc4ccccc4c3)cc21 (stereo partly drawn) [Compound 15c, (2S)-2-Amino-3-(4-hydroxy-2,6-dimethylphenyl)-N-(6-(naphthalen-2-ylmethyl)-1,2,3,4-tetrahydroquinolin-4-yl)propanamide], the Kb [2] is reported as 34.3 nM.

Cc1cc(O)cc(C)c1C[C@H](N)C(=O)N[C@@H]1CCNc2ccc(Cc3cccc4ccccc34)cc21 [Compound 15b, (2S)-2-Amino-3-(4-hydroxy-2,6-dimethylphenyl)-N-(6-(naphthalen-1-ylmethyl)-1,2,3,4-tetrahydroquinolin-4-yl)propanamide] gave a Ki [3] of 0.76 ± 0.14 nM.
